# Results as given in US5804603A, “Synthesized β-adrenergic blockers derivatives of guaiacol” (National Science Council, priority 1995, dated 1998).
# Like-named read-outs stand apart in the source and are kept apart here.
# Tests used:
# [1] = test system: acetic acid-induced writhing syndrome; test: Acetic acid-induced writhing (antinociceptive test); type: in vivo, male mice (ddk strain); details: for Protection / Writhes No. (Ave. ± S.E.): 1.25 mg/kg i.p., N = 8; for ED50: Mus musculus, ip, read-out: ED50 (95% C.I.); for Potency ratio: relative to DZ = 1.00
# Method: Following the method described by Koster antinociceptive tests were carried out in male mice after intraperitoneal administration of test solution. […] The test solution was administered by intraperitoneal injection of a single dose 0.2 ml (vehicle administered as control). Twenty minutes after injection, 0.2 ml of 0.7% acetic acid was injected intraperitoneally to induce writhing.
# [2] = test system: platelet aggregation induced by collagen; test: Collagen-induced platelet aggregation in platelet rich plasma; type: cell-based; details: 10 μg/ml collagen, PRP; for IC100: Platelet, FIG. 18, read-out: concentration completely inhibiting platelet aggregation
# Method: A monophasic aggregation curve was observed when 10 μg/ml of collagen was added to platelet rich plasma (PRP).
# [3] = test system: right eye of male Wistar rats; test: Eye wiping test (pain-producing potency); type: in vivo; details: for pain producing potency: eye drops 10^-4 to 10^-2 M, 30 min, FIG. 1
# Method: The wiping test was performed as described by Szolcsanyiand, Jancso-Gabor. Briefly, the solution or suspension of the test compound and its analogs was made up in 10% ethanol, 5% Tween 80 and then diluted with saline to the required concentrations. Each solution or suspension of 10^-4 M, 10^-3 M, 10^-2 M was dropped into the right eye (vehicle being administered to the left eye as negative control) of male Wistar rats weighing 180-250 g and the total number of protective movements (scratching, wiping of the eye with the foreleg) was counted for 30 minutes. Each test was carried out with a total of 6 rats, and a dose-response curve was obtained from the mean value of each group.
# β-receptor = β-receptor (Cavia porcellus, UniProt H0W3H1); test: Receptor binding assay, [3H]-dihydroalprenolol, heart ventricle membranes; details: for IC50: FIG. 15 and Table 4
# Method: Method of receptor binding assay. After punching the heads of guinea pigs, the blood was drained and the heart ventricle immediately removed. The ventricles were placed in 10 vols. of ice-cold buffer (250 mM sucrose, 1 mM Magnesium Chloride, 50 mM Tris-HCl, pH 7.5) and all subsequent procedures were carried out at 4° C. The ventricles were homogenized using a homogenizer 3-4 times. The period of each homogenization took 15 seconds. […] The supernatant was further centrifuged at 10,000 g and the final pellet was resuspended in a small volume of 75 mM Tris buffer containing 25 mM Magnesium Chloride. The membrane protein content was determined by a protein assay dye. The receptor binding assay was initiated by incubating 100 μl of, a membrane protein solution with 50 μl of [^3 H]-dihydroalprenolol(^3 H-DHA) and the competing drugs. Additional buffer was added to increase the reaction volume up to 250 μl. The binding reaction was activated at 25° C. water by constantly shaking for 60 minutes. The binding reaction was stopped by diluting it with 1 ml of ice-cold assay buffer. The solution was then filtered on a Whatman GF/C glass fiber filter paper under vacuum suction. The filters were washed 3 times with ice-cold assay buffer and dried at 60±C. in an oven for 2 hrs. Then 4 ml of scintillation fluid was added and the radioactivity was counted on β-counter.
# β1 adrenergic receptor [4] = test: Antagonism of isoproterenolol on isolated guinea pig right atrium; type: cell-based
# Source text: (§1) A bath as described in Gen.
# (§2) The determination of the pA2 is made from experiments in which a fixed concentration of the antagonist is used along with graded concentrations of an agonist acting on the same receptor. The presence of the antagonist shifts the agonist dose-response curve to the right.
# β1 adrenergic receptor [5] = target: T1, β1 adrenergic receptor (Cavia porcellus, UniProt H0W3H1); test: as above; type: cell-based
# T1 construct: isolated guinea pig right atrium; from tissue; host or cells: guinea pig right atrium (isolated organ)
# Source text: as §1, §2
# in vivo = details: mouse, mice, read-out: LD50 (95% C.L.)
# [6] = test system: heart rate and blood pressure; test: Heart rate and blood pressure of anesthetized rats (i.v.); type: in vivo; details: for ED50: Rattus norvegicus, iv, read-out: ID50 : heart rate response (95% C.I.); for ED50 / ID50 : heart rate response (95% C.I.): anesthetized rats, Litchfield method; for ID50 : heart rate response (95% C.I.) / time of slightly reduced blood pressure after injection: i.v.; for time of slightly reduced blood pressure after injection: statistical significance not found
# Source text: […]. The effect of DZN on heart rate and blood pressure were monitored.
# […]. Exp. Ther., vol. 96, 99-113). The ID50 value is the response of a β drug which produces a response in 50% of […].
# β2 adrenergic receptor = target: T2, β2 adrenergic receptor (Rattus norvegicus, UniProt P10608); test: Antagonism of isoproterenolol on isolated rat uterus horns; type: cell-based
# T2 construct: from tissue; host or cells: rat uterus horns (isolated organ, stilbestrol and reserpine pretreated)
# Method: Female rats were intraperitonealy injected with stilbestrol (1 mg/kg) to elevate the sensitivity of β2 adrenergic receptor in uterus horns. The rats were subsequently administered reserpine to deplete the catecholamine in uterus. The isolated uterus horns were treated with phenoxybenzamine to block the neuronal uptake and the interaction between neuron cells and the adrenergic receptor.
# [7] = test system: isolated rat right atrium; test: Isolated rat right atrium pretreated with reserpine; type: cell-based
# β1 and β2 receptors = details: cited from earlier work
# [8] = test system: heart rate and blood pressure; test: Heart rate and blood pressure changes of rats induced by guaiacoxypropanolamines; type: in vivo
# platelets = details: cited from earlier work
# [9] = test system: carrageenin-induced paw edema; details: in vivo; cited from earlier work
# blood vessels = details: mouse and rat; cited from earlier work
# isolated portal veins = details: mice; cited from earlier work
# intraocular pressure = details: in vivo; cited from earlier work
# [10] = target: T3, Isolated Guinea Pig Atria (Cavia porcellus, UniProt H0W3H1); test: pA2 on isolated guinea pig atria; type: cell-based
# T3 construct: Isolated Guinea Pig Atria; from tissue; host or cells: guinea pig atria (isolated organ)
# Water solubility = type: physicochemical
# [11] = mice, Litchfield and Wilcoxon method
# [12] = 5 min after dosing, 1.0 mg/kg iv, means ± SE (n = 8)
# [13] = 10 min after dosing, 1.0 mg/kg iv, means ± SE (n = 8)
# [14] = 15 min after dosing, 1.0 mg/kg iv, means ± SE (n = 8)
# [15] = 30 min after dosing, 1.0 mg/kg iv, means ± SE (n = 8)
# [16] = 60 min after dosing, 1.0 mg/kg iv, means ± SE (n = 8)
# T3 sequence (H0W3H1 1-470): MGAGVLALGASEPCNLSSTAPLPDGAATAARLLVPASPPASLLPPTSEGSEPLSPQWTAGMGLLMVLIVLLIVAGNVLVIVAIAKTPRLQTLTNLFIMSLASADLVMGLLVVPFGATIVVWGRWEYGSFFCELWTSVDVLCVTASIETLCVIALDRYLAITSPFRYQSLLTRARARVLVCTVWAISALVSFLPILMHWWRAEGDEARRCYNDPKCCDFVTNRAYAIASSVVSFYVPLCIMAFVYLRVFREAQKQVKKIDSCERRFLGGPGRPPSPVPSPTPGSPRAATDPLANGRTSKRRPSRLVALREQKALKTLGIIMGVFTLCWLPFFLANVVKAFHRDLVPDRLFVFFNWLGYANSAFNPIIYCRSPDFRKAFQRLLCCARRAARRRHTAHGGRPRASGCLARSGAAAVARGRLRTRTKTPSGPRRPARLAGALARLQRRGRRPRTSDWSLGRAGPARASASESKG
# Sequence of β-receptor (H0W3H1 1-470): as above
# T1 sequence (H0W3H1 1-470): as above
# T2 sequence (P10608 whole entry): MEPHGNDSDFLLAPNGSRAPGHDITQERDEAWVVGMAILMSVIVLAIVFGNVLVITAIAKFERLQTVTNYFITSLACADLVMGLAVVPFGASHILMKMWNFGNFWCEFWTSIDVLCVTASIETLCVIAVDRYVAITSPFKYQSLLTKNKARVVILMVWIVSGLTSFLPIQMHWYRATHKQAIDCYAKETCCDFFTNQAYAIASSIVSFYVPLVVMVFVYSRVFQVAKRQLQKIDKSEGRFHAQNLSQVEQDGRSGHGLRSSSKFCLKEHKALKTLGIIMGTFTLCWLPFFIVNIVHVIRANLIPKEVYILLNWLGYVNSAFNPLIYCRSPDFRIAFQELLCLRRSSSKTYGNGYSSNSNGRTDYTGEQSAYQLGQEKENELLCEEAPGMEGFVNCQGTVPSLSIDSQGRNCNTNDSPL
compound,measurement,setting,value
"COc1cc(CCC(C)=O)ccc1O [zingerone, 4-(4'-hydroxy-3'-methoxyphenyl)-3-butan-2-one, reference compound]",antinociceptive potency relative to DZ,[1],3 times
same,Protection,[1],71.10%
same,Writhes No. (Ave. ± S.E.),[1],20.75 ± 3.40
same,ED50,[1],0.25 mg/kg
same,Potency ratio,[1],1.50
same,inhibition of collagen-induced platelet aggregation,[2],dose-dependent inhibition of platelet aggregation
"COc1cc(C=CC(C)=O)ccc1OCC(O)CNC(C)C (racemic) [DZN, 4-[4'-(2-hydroxy-3-isopropylaminopropoxy)-3'-methoxyphenyl]-3-buten-2-one]",Protection,[1],86.06%
same,Writhes No. (Ave. ± S.E.),[1],11.17 ± 2.36
same,ED50,[1]; [11],0.11 mg/kg
same,Potency ratio,[1],3.50
same,pain producing potency,[3],lower than that of DZ and zingerone
same,EC50,β-receptor,1300 nM
same,IC50,β-receptor,close to the IC50 values of the well known β-adrenergic agonist Atenolol
same,Cardioselectivity ratio,β1 adrenergic receptor [4],4.26
same,shift of isoproterenolol concentration-effect curve,β1 adrenergic receptor [5]; guinea pig right atrium,partially shifted to the right
same,"slope of regression (Schild plot), β1",β1 adrenergic receptor [5]; guinea-pig right atrium,0.96 ± 0.05
same,Kb,"β1 adrenergic receptor [5]; read-out: pA2, β1 (converted)",6.92 nM
same,LD50,in vivo; ip,> 1000 mg/kg
same,LD50,in vivo; po,> 1000 mg/kg
same,ED50,[6],0.22 mg/kg
same,duration of bradycardia,"[6]; i.v. 0.1, 0.5, 1.0 mg/kg",over 1 hr
same,bradycardia,"[6]; i.v. 0.1, 0.5, 1.0 mg/kg, FIGS. 3-6",dose-dependent bradycardia
same,ID50 : heart rate response (95% C.I.),[6]; listed as DZH (compound 4),0.22 (1.29-0.04) mg/kg
same,time of slightly reduced blood pressure after injection,[6],5 to 10 min
same,effect on blood pressure induced by isoproterenolol,"[6]; rat, in vivo",lowered the blood pressure induced by isoproterenolol
same,effect on resting heart rate,"[6]; rat, in vivo",reduced resting heart rate
same,inhibition of collagen-induced platelet aggregation,[2],dose-dependent inhibition of platelet aggregation
same,IC100,[2],250 µM
same,shift of isoproterenolol concentration-effect curve,"β2 adrenergic receptor; 10^-8 -10^-6 M DZN, rat uterus horns",partially shift to the right
same,"slope of regression (Schild plot), β2",β2 adrenergic receptor; rat uterus,0.99±0.11
same,Kb,"β2 adrenergic receptor; read-out: pA2, β2 (converted)",29.5 nM
"CC(C)NCC(O)c1ccc(O)c(O)c1 (stereo not drawn) [isoproterenolol, reference compound]",effect on heart rate and contraction force,[7]; FIG. 16,increases the heart rate and contraction force
same,concentration of isoproterenolol giving maximum effect,[7]; FIG. 17,3 µM
same,effect on blood pressure,[6]; isoproterenolol 0.5 mg/kg,decreased blood pressure
same,effect on heart rate,[6]; isoproterenolol 0.5 mg/kg,increased the heart rate
same,effect on isolated uterus horn smooth muscle,β2 adrenergic receptor; 10^-8 -10^-6 M isoproterenolol,dose-related decrease in relaxation force
"COc1cc(C=CC(C)=O)ccc1OCC1CO1 (stereo not drawn) [DZE, 4-[4'-(2,3-Epoxypropoxy)-3'-methoxyphenyl]-3-buten-2-one]",Protection,[1],65.69%
same,Writhes No. (Ave. ± S.E.),[1],27.50 ± 3.32
same,ED50,[1]; [11],0.23 mg/kg
same,Potency ratio,[1],1.70
same,inhibition of collagen-induced platelet aggregation,[2],dose-dependent inhibition of platelet aggregation
same,IC100,[2],100 µM
"CC(C)NCC(O)COc1ccc(CC(N)=O)cc1 (racemic) [Atenolol, reference compound]",cardioselectivity,β1 and β2 receptors,possess cardioselectivity
"COc1cc(C=CC(C)=O)ccc1O [DZ, 4-(4'-hydroxy-3'-methoxyphenyl)-3-buten-2-one]",Protection,[1],63.06%
same,Writhes No. (Ave. ± S.E.),[1],29.60 ± 3.75
same,ED50,[1]; [11],0.38 mg/kg
same,effect on heart rate,[7]; 10^-9 -10^-5 M,did not affect the heart rate within 10^-9 -10^-5 M
same,LD50,in vivo; ip,> 1000 mg/kg
same,LD50,in vivo; po,> 1000 mg/kg
same,inhibition of collagen-induced platelet aggregation,[2],dose-dependent inhibition of platelet aggregation
same,IC100,[2],250 µM
CCCC(=O)Nc1ccc(OCC(O)CNC(C)C)c(C(C)=O)c1 (stereo not drawn) [Acebutolol],cardioselectivity,β1 and β2 receptors,possess cardioselectivity
"CC(C)NCC(O)COc1cccc2ccccc12 (stereo not drawn) [propranolol, reference compound]",change in HR,[8]; [12],-57.28 ± 5.94 beats/min
same,change in BP,[8]; [13],-6.33 ± 2.16 mmHg
same,change in HR,[8]; [13],-63.85 ± 7.18 beats/min
same,change in BP,[8]; [14],-6.50 ± 3.26 mmHg
same,change in HR,[8]; [14],-65.28 ± 8.43 beats/min
same,change in BP,[8]; [15],-4.67 ± 2.66 mmHg
same,change in HR,[8]; [15],-62.57 ± 9.06 beats/min
same,change in BP,[8]; [16],2.17 ± 3.29 mmHg
same,change in HR,[8]; [16],-52.14 ± 10.93 beats/min
same,change in BP,"[8]; iv, 1 mg/kg, 5 min",-2.83 ± 1.81 mmHg
same,adherence of platelets on collagen,platelets,inhibit platelet release and the adherence of platelets on collagen
same,platelet release,platelets,inhibit platelet release
same,shape change of platelets,platelets,does not inhibit the shape change of platelets
same,effect on isoproterenolol-induced heart rate and blood pressure changes,"[6]; FIGS. 6(A), 6(B)",antagonized the effects of isoproterenolol
same,ED50,[6],0.14 mg/kg
same,ID50 : heart rate response (95% C.I.),[6],0.14 (0.96-0.02) mg/kg
same,time of slightly reduced blood pressure after injection,[6],5 to 10 min
same,inhibition of collagen-induced platelet aggregation,[2],dose-dependent inhibition of platelet aggregation
COc1cc(CCC(C)=O)ccc1OCC(O)CNC(C)C (racemic) [ZPN],EC50,β-receptor,11000 nM
COCCc1ccc(OCC(O)CNC(C)C)cc1 (stereo not drawn) [Metoprolol],cardioselectivity,β1 and β2 receptors,possess cardioselectivity
CCCCC/C=C/C(=O)CCc1ccc(O)c(OC)c1 [Shogaol],carrageenin-induced paw edema,[9],inhibitory activity
same,platelet aggregation,platelets,inhibitory activity
CCCCC[C@H](O)CC(=O)CCc1ccc(O)c(OC)c1 [Gingerol],eicosanoid-induced contraction of blood vessels,blood vessels,modulates the eicosanoid-induced contraction of mouse and rat blood vessels
same,contraction of isolated portal veins,isolated portal veins,suppresses the contraction of isolated portal veins in mice
COc1cc(C=CC(C)=O)ccc1OCC(O)CNC(C)(C)C (stereo not drawn) [Vaninolol],intraocular pressure (IOP),intraocular pressure,lower the intraocular pressure (IOP)
N-[4-0-(2-hydroxy-3-(3-aminopentylamino)propoxy)-3-methoxybenzyl-]-nonamide [NHC5 H11],change in BP,[8]; [12],-2.78 ± 2.33 mmHg
same,change in HR,[8]; [12],-28.11 ± 9.34 beats/min
same,change in BP,[8]; [13],-2.56 ± 1.42 mmHg
same,change in HR,[8]; [13],-28.89 ± 6.30 beats/min
same,change in BP,[8]; [14],-3.22 ± 1.78 mmHg
same,change in HR,[8]; [14],-22.78 ± 5.04 beats/min
same,change in BP,[8]; [15],-1.33 ± 1.38 mmHg
same,change in HR,[8]; [15],-2.22 ± 7.28 beats/min
same,change in BP,[8]; [16],0.67 ± 0.47 mmHg
same,change in HR,[8]; [16],-3.33 ± 5.69 beats/min
same,"pA2, positive chronotropic",[10]; isolated guinea pig atria,7.25 ± 0.10
same,"pA2, positive inotropic",[10]; isolated guinea pig atria,7.26 ± 0.08
same,"Potency ratio (PR), positive chronotropic",[10]; with respect to propranolol,0.14
same,"Potency ratio (PR), positive inotropic",[10]; with respect to propranolol,0.07
"COc1cc(C=CC(C)=O)ccc1OCC(O)CNC(C)(C)C (racemic) [DZBN, 4-[4'-(2-hydroxy-3-tert-butylaminopropoxy)-3'-methoxyphenyl]-3-buten-2-one]",pain producing potency,[3],lower than that of DZ and zingerone
same,pungency,"[3]; rat, in vivo",lower pungency
same,EC50,β-receptor,3600 nM
same,IC50,β-receptor,close to the IC50 values of the well known β-adrenergic agonist Atenolol
same,water solubility,Water solubility,watersoluble
